Calls of active or inactive are those of the source.
What was measured:
Beta-galactosidase = Beta-galactosidase (Escherichia coli, UniProt Q8VNN2); experiment: PubChem AID 485352; format: functional
[1] = molecular target: T1, Type-1 angiotensin II receptor (Homo sapiens, UniProt P30556); experiment: antagonism of angiotensin II type 1 receptor – cell-based, uHTS hits, selectivity assay for APJ receptor antagonist project, dose response (AID 463214); format: functional;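 further: antagonist potency against angiotensin II stimulated AT1 response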
T1 sequence (P30556 whole entry): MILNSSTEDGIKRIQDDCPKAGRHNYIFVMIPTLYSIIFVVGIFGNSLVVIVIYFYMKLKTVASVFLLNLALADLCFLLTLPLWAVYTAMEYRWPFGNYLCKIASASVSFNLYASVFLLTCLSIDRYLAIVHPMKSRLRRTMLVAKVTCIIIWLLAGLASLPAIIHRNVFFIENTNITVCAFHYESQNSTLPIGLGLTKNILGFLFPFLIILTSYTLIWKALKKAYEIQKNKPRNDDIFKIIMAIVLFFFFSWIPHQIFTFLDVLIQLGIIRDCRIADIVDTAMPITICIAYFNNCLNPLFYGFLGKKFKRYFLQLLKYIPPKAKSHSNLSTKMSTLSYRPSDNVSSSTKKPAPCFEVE

[2] = HGIII-sPLA2 enzyme inhibition potency – biochemical, QFRET, IC50, dose response (AID 743457);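 further: green fluorescence rise as the enzyme cleaves BODIPY PC-A2 in liposomes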
[3] = molecular target: T2, Polyadenylate-binding protein 1 (Homo sapiens, UniProt P11940); experiment: MLLE binding blockers, Cy5 peptide tracer – biochemical, fluorescence polarization, Cy5-PAM2 peptide, secondary, miRNA deadenylation inhibitor project, dose response (AID 602260); format: functional; conditions: read-out: IC50_Mean
T2 sequence (P11940 whole entry, the tested form may be a part): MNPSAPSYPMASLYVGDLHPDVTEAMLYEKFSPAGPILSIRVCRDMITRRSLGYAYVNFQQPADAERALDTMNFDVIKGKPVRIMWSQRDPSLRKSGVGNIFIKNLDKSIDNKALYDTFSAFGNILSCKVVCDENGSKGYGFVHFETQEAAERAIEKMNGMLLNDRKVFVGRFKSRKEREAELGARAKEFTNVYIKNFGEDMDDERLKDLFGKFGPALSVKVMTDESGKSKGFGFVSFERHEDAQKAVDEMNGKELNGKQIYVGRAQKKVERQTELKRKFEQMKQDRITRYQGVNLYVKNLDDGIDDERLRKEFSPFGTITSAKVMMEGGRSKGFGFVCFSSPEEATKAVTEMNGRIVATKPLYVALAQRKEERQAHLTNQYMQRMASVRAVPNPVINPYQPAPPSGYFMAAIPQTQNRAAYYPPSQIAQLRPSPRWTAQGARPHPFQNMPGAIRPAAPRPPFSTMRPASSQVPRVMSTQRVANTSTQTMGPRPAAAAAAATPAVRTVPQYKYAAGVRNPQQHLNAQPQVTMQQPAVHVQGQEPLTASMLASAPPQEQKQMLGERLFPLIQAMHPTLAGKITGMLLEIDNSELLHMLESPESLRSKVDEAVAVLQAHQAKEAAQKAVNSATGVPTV

[4] = molecular target: T2, Polyadenylate-binding protein 1; experiment: MLLE domain peptide-binding blockers, IC50 – biochemical, fluorescence polarization, FITC-PAM2 peptide, dose response (AID 602259); format: functional; conditions: read-out: IC50_Mean
Protein Tat = molecular target: T3, Protein Tat (Human immunodeficiency virus type 1 group M subtype B (isolate HXB2)(HIV-1), UniProt P04608); format: functional;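 further: tat binding to TAR RNA read out by fluorescence polarization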
T3 sequence (P04608 whole entry): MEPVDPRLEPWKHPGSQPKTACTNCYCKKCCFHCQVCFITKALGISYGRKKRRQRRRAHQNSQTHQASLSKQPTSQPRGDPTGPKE

[5] = molecular target: T4, Neuropeptide Y receptor type 1 (Homo sapiens, UniProt P25929); format: functional;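 further: HEK293 cells with a CNG channel challenged with NPY then isoproterenol; potency as antagonist that reverses NPY suppression of cAMP signal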
T4 sequence (P25929 whole entry): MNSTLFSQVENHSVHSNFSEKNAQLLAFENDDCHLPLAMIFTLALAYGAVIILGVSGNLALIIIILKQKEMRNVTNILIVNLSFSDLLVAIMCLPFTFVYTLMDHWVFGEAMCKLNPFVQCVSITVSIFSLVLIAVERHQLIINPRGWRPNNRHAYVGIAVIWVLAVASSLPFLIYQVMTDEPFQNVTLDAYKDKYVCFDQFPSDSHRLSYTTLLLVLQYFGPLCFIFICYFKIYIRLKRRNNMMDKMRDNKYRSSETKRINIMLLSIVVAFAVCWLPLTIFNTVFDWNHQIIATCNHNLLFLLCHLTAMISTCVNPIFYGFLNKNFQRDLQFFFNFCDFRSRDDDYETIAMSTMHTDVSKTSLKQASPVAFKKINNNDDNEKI

[6] = molecular target: T5, Neuropeptide Y receptor type 2 (Homo sapiens, UniProt P49146); format: functional, cell-based;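 further: HEK293 cells expressing the receptor and a CNG channel; stimulus was NPY near EC95 followed by isoproterenol to raise cAMP; antagonist potency measured as restoring cAMP signal that NPY suppresses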
T5 sequence (P49146 whole entry): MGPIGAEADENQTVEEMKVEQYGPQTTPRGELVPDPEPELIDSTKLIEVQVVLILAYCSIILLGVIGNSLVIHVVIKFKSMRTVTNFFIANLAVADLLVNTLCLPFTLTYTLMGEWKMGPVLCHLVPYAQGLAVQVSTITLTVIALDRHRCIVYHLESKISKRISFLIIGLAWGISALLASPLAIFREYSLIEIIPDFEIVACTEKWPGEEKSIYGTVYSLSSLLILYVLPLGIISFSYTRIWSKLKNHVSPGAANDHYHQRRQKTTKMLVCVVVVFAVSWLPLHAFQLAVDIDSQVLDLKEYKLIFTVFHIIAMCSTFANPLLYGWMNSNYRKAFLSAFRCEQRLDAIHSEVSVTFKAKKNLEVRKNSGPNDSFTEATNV

Estrogen receptor beta = Estrogen receptor beta (Homo sapiens, UniProt Q92731); experiment: blockers of SRC-3 recruitment to ERβ – biochemical, ELISA, streptavidin-HRP readout, orthogonal assay, confirmation (AID 1060)
Estrogen receptor beta, sequence (Q92731 whole entry): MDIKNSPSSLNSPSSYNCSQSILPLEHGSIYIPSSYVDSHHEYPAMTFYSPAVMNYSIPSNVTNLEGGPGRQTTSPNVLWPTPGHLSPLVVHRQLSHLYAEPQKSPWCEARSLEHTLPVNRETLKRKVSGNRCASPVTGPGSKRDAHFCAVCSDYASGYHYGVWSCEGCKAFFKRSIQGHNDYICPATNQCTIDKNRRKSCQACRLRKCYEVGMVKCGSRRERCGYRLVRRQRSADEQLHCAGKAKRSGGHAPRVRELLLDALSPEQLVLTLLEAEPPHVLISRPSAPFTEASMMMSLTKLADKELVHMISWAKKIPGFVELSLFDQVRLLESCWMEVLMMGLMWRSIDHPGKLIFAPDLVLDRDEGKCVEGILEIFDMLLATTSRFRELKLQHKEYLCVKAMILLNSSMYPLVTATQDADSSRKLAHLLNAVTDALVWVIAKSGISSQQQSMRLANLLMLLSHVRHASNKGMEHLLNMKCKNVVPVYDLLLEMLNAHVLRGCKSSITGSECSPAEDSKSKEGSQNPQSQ

[7] = viability of uninfected HEp-2 cells – cell-based, HTS, cytotoxicity control for RSV inhibitor project, dose response (AID 2410); format: functional; conditions: human respiratory syncytial virus
[8] = molecular target: T6, Ubiquitin-conjugating enzyme E2 N (Homo sapiens, UniProt P61088); format: functional;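 further: Dose-response confirmation in a TR-FRET assay detecting UBC13-driven polyubiquitin chain formation, inhibition measured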
T6 sequence (P61088 whole entry): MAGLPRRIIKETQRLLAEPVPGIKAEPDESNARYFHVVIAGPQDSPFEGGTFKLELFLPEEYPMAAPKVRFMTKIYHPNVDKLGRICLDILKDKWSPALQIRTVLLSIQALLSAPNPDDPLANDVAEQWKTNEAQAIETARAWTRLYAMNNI

[9] = molecular target: T7, Apoptotic protease-activating factor 1 (Homo sapiens, UniProt O14727); format: functional
T7 sequence (O14727 whole entry): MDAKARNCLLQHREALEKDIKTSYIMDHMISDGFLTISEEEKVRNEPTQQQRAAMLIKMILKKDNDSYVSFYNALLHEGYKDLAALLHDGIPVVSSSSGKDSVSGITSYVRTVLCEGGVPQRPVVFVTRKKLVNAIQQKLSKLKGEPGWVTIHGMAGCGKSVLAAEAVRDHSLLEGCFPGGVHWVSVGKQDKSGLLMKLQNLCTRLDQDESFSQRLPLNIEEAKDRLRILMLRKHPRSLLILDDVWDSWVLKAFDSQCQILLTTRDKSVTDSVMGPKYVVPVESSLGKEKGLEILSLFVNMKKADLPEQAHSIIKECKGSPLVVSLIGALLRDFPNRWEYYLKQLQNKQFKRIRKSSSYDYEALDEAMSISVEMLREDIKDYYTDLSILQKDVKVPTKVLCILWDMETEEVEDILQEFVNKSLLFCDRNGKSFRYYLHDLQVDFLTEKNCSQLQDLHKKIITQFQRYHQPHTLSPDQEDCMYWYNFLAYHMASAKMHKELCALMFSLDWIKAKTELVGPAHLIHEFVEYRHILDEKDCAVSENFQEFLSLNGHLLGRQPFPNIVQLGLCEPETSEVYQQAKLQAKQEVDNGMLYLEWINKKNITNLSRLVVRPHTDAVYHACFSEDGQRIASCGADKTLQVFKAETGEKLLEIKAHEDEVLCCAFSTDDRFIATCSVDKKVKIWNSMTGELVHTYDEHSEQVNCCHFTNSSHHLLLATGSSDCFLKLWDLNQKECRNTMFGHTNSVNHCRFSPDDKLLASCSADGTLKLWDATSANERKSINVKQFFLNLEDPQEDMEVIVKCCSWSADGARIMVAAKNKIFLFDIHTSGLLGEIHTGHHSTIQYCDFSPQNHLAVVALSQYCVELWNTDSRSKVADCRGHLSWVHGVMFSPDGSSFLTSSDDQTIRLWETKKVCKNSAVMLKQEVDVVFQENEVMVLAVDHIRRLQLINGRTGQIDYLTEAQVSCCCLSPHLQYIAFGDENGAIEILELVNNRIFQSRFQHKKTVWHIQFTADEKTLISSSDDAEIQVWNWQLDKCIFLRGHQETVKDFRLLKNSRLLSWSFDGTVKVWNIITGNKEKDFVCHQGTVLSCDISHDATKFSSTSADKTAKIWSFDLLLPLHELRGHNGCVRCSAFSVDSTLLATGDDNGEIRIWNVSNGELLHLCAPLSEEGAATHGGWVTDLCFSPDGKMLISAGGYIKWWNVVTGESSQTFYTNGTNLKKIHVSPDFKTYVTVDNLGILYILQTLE

[10] = NIH-3T3 fibroblast cytotoxicity, dose response, cytotoxicity control, cell-based, fluorescence, Alamar Blue, secondary assay (AID 2327); format: functional;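 further: NIH-3T3 mouse fibroblasts cultured with fluconazole at 8 µg/mL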
[11] = fluconazole-exposed Candida albicans growth modulators – fluorescence, retest, confirmation (AID 2467); format: functional, cell-based
Paired box protein Pax-8 = Paired box protein Pax-8 (Homo sapiens, UniProt Q06710); experiment: PAX8 transcriptional activity inhibition in RMG-I – RMG-I cells, luciferase, cherry-pick, dose response (AID 687027); format: functional, cell-based;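 further: luciferase reporter driven by Pax8 target thyroperoxidase promoter measured by SteadyGlo luminescence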
Paired box protein Pax-8, sequence (Q06710 whole entry): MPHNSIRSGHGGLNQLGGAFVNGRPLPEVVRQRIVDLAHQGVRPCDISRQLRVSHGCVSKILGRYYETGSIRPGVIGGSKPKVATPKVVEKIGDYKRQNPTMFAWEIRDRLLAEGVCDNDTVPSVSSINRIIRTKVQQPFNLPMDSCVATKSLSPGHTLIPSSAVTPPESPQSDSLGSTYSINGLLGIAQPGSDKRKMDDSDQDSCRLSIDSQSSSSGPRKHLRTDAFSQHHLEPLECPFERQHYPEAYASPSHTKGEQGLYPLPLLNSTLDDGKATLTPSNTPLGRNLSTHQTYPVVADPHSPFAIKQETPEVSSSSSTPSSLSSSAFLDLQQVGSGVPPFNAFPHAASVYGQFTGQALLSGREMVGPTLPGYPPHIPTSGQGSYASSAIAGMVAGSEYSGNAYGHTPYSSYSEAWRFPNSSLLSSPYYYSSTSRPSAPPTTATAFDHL

[12] = OVCAR8 cell viability loss – plate reader, dry powder samples, PAX8 project, dose response (AID 743197); format: functional, cell-based; conditions: OVCAR-8
[13] = CellTiter-Glo luminescence survival assay, SW480 colon tumor line, concentration-response curve, half-maximal inhibitory concentration (AID 1117338); format: functional
[14] = RKO cell viability reduction, dose response, CellTiter-Glo luminescence (AID 1117322); format: functional
[15] = SNU-C1 cell viability reduction, dose response, CellTiter-Glo luminescence (AID 1117323); format: functional, cell-based
[16] = cytotoxicity toward Colo320 cells – cell-based, CellTiter-Glo luminescence, IC50, dose response (AID 1117334); format: functional; conditions: COLO 320
[17] = Reduced DLD-1 viability, concentration-response, CellTiter-Glo luminescence (AID 1117352); format: functional
[18] = HCT116 cell viability decrease, GSK3B pretreatment – CellTiter-Glo, IC50, dose response (AID 1117339); format: functional; conditions: HCT-116
[19] = cytotoxicity toward HCT116 cells – cell-based, CellTiter-Glo luminescence, IC50, dose response (AID 1117332); format: functional; conditions: HCT-116
[20] = cytotoxicity toward HT-29 cells – cell-based, CellTiter-Glo luminescence, IC50, dose response (AID 1117330); format: functional
[21] = rise of 2N DNA cells, HeLa – IC50, dose response (AID 1117349); format: functional, cell-based
[22] = rise of 4N DNA cells, HeLa – IC50, dose response (AID 1117351); format: functional, cell-based

Beta-galactosidase, sequence (Q8VNN2 whole entry): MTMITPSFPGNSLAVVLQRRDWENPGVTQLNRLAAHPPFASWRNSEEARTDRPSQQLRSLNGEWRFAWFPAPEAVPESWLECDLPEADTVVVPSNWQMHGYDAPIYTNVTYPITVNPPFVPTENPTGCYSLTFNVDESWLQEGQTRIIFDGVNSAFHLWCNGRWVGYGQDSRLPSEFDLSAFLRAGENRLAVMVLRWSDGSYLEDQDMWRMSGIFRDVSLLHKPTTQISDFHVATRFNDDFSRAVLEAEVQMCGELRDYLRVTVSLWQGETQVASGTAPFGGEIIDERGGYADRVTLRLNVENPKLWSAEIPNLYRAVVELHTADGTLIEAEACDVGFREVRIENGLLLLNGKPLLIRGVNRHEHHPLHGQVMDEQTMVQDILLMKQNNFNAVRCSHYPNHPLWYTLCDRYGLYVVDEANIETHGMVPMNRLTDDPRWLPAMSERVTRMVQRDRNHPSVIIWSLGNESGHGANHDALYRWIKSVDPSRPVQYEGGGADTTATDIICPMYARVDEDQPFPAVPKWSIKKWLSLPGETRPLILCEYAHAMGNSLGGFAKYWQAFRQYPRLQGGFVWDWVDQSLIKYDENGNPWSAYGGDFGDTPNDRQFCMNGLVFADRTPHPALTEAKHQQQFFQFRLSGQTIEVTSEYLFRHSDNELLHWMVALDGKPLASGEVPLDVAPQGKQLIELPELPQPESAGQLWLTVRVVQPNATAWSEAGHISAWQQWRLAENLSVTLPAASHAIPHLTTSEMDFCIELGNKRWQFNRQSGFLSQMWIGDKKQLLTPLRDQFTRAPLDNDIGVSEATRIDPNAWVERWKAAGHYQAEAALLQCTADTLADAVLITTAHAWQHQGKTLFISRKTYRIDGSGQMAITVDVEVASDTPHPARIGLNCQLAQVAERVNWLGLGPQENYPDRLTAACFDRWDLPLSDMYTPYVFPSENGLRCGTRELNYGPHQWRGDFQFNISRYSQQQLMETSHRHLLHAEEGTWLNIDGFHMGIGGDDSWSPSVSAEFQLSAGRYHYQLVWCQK

CCN=C(S)NNc1nnc(-c2ccccc2)c(-c2ccccc2)n1
EC50 (Beta-galactosidase): > 40 µM (inactive)
IC50 [1]: > 40 µM (not active)
IC50 [2]: > 122 µM (inactive)

C=CCn1c(SCC(=O)c2cc(C)n(C(C)COC)c2C)nc2sc(C)c(C)c2c1=O (stereo not given)
IC50 [3]: > 66 µM (inactive)
IC50 [4]: > 66 µM (inactive)
IC50 (Protein Tat): > 100 µM (active)

CCC(NCCC(c1ccccc1)c1ccccc1)=C1C(=O)N(C)C(=O)N(C)C1=O
IC50 [5]: 5.26 µM (active)
IC50 [6]: 5.26 µM (active)

C=CCN1C(=O)NC(=O)/C(=C(/CC)NCCN2CCOCC2)C1=O
IC50 (Protein Tat): > 100 µM (active)

N#Cc1ccc(N2CCN(C(=O)CCCCCn3c(=S)[nH]c4ccccc4c3=O)CC2)cc1
IC50 (Estrogen receptor beta): 10.5 µM (not active)

Cc1ccc(NC(=O)CN(C)C(=O)c2ccc3[nH]c4c(c3c2)CC(C)CC4)cc1 (stereo not given)
CC50 [7]: 28.2 µM (active)
IC50 [8]: > 20 µM (inactive)
IC50 [9]: > 100 µM (inactive)
IC50 (cells): 22.2 µM (active)

Cc1onc(-c2ccccc2Cl)c1C(=O)Nc1sc2c(c1C#N)CCC2
EC50 [10]: > 160 µM (inactive)
IC50 [5]: 7.12 µM (active)
EC50 [11]: 1.59 µM (active)
IC50 [6]: 5.86 µM (active)

COc1ccc(-c2cc(C(=O)N3CCCCCC3)c3ccccc3n2)c(OC)c1
CC50 [7]: 40.8 µM (active)
IC50 (cells): 28 µM (active)

Cc1cc(C(=O)NNC(S)=NC(C)c2ccccc2)c2ccccc2n1 (stereo not given)
EC50 [10]: > 150 µM (inactive)
EC50 [11]: > 38 µM (not active)
IC50 [2]: > 122 µM (inactive)

Cc1ccc(S(=O)(=O)C(c2ccccc2)c2c(C)noc2C)cc1 (stereo not given)
IC50 [5]: > 35 µM (not active)
IC50 [6]: 3.92 µM (active)

C[C@@H]1CCCCO[C@@H](CN(C)C(=O)Nc2cccc3ccccc23)[C@H](C)CN([C@H](C)CO)C(=O)c2cc(NS(=O)(=O)c3ccccc3)ccc2O1
AC50 (Paired box protein Pax-8): 3.66 µM (active)
AC50 [12]: > 70 µM (inactive)

O=C1C(=O)N(Cc2ccc(-c3ccsc3)cc2)c2ccc(OC(F)(F)F)cc21
IC50 [2]: 25.5 µM (inactive)

CCOP(=S)(OCC)SCSc1ccc(Cl)cc1 [CARBOFENOTION]
IC50 [13]: > 20 µM (inactive)
IC50 [14]: > 20 µM (inactive)
IC50 [15]: > 20 µM (inactive)
IC50 [16]: > 20 µM (inactive)
IC50 [17]: > 20 µM (inactive)
IC50 [18]: > 20 µM (inactive)

C=CCN1CC[C@]23CCCC[C@H]2[C@H]1Cc1ccc(O)cc13 [LEVALLORPHAN]
IC50 [13]: > 20 µM (inactive)
IC50 [14]: > 20 µM (inactive)
IC50 [19]: > 20 µM (inactive)
IC50 [15]: > 20 µM (inactive)
IC50 [16]: > 20 µM (inactive)
IC50 [20]: > 20 µM (inactive)
IC50 [17]: > 20 µM (inactive)
IC50 [18]: > 20 µM (inactive)

COC(=O)Nc1nc2cc([S+]([O-])c3ccccc3)ccc2[nH]1 (stereo not given) [OXFENDAZOLE]
IC50 [21]: 0.326 µM (active)
IC50 [13]: > 20 µM (inactive)
IC50 [14]: 0.001 µM (active)
IC50 [19]: 0.001 µM (active)
IC50 [22]: 0.331 µM (active)
IC50 [20]: > 20 µM (inactive)
IC50 [17]: > 20 µM (inactive)
IC50 [18]: 0.001 µM (active)

O=C(Nc1ccc(Br)cc1)c1cc(Br)cc(Br)c1O [TRIBROMSALAN]
IC50 [21]: > 10 µM (inactive)
IC50 [13]: 0.001 µM (active)
IC50 [14]: 0.003 µM (active)
IC50 [19]: 0.003 µM (active)
IC50 [15]: 0.001 µM (active)
IC50 [16]: 0.003 µM (active)
IC50 [22]: > 10 µM (inactive)
IC50 [20]: 0.001 µM (active)
IC50 [17]: 0.001 µM (active)
IC50 [18]: 0.001 µM (active)
